Source: ChEMBL document CHEMBL4804286, “3-amino-4-(4-(4 (dimethylcarbamoyl) phenyl)-1,4-diazepan-1-yl) thieno [2,3-b] pyridine-2-carboxamide for use in cancer therapy and formulations comprising the same” (2020)
Several values for one entry are separate records, joined by “and”; a condition that tells them apart may be missing. Equal values may be shown once. Activity calls are given as the source filed them. The rule behind the calls is not given here.

How the values were obtained:
[1] = tested on: Tyrosine-protein kinase ABL1 (Homo sapiens), P00519 [F317I]; experiment: Inhibition of phosphorylated human ABL1 F317I mutant assessed as percent of control at 2000 nM by KINOMEscan assay relative to control; parameters: scale not given: the % may be the effect or the level left
[2] = tested on: Tyrosine-protein kinase ABL1 (Homo sapiens), P00519 [Q252H]; experiment: Inhibition of phosphorylated human ABL1 Q252H mutant assessed as percent of control at 2000 nM by KINOMEscan assay relative to control; parameters: scale not given: the % may be the effect or the level left
[3] = target: Tyrosine-protein kinase ABL2 (Homo sapiens) (UniProt P42684); experiment: Inhibition of human ABL2 assessed as percent of control at 2000 nM by KINOMEscan assay relative to control; parameters: scale not given: the % may be the effect or the level left
[4] = target: Activin receptor type-1-like (Homo sapiens) (UniProt P37023); experiment: Inhibition of human ACVRL1 assessed as percent of control at 2000 nM by KINOMEscan assay relative to control; parameters: scale not given: the % may be the effect or the level left
[5] = target: Aurora kinase B (Homo sapiens) (UniProt Q96GD4); experiment: Inhibition of human AURKB assessed as percent of control at 2000 nM by KINOMEscan assay relative to control; parameters: scale not given: the % may be the effect or the level left
[6] = target: Cyclin-dependent kinase 19 (Homo sapiens) (UniProt Q9BWU1); experiment: Inhibition of human CDK11 assessed as percent of control at 2000 nM by KINOMEscan assay relative to control; parameters: scale not given: the % may be the effect or the level left; conditions: INHIBITOR
[7] = target: CDK4/Cyclin D3 (Homo sapiens) (UniProt P11802+P30281); experiment: Inhibition of human CDK4/cyclin D3 assessed as percent of control at 2000 nM by KINOMEscan assay relative to control; assay type: protein-complex assay; parameters: scale not given: the % may be the effect or the level left
[8] = target: Cyclin-dependent kinase-like 1 (Homo sapiens) (UniProt Q00532); experiment: Inhibition of human CDKL1 assessed as percent of control at 2000 nM by KINOMEscan assay relative to control; parameters: scale not given: the % may be the effect or the level left
[9] = target: Dual specificity protein kinase CLK4 (Homo sapiens) (UniProt Q9HAZ1); experiment: Inhibition of human CLK4 assessed as percent of control at 2000 nM by KINOMEscan assay relative to control; parameters: scale not given: the % may be the effect or the level left
[10] = target: Death-associated protein kinase 2 (Homo sapiens) (UniProt Q9UIK4); experiment: Inhibition of human DAPK2 assessed as percent of control at 2000 nM by KINOMEscan assay relative to control; parameters: scale not given: the % may be the effect or the level left
[11] = tested on: Epidermal growth factor receptor (Homo sapiens), P00533 [UNDEFINED MUTATION]; experiment: Inhibition of human EGFR L747-E749del/A750P double mutant assessed as percent of control at 2000 nM by KINOMEscan assay relative to control; parameters: scale not given: the % may be the effect or the level left
[12] = target: Receptor tyrosine-protein kinase erbB-4 (Homo sapiens) (UniProt Q15303); experiment: Inhibition of human ERBB4 assessed as percent of control at 2000 nM by KINOMEscan assay relative to control; parameters: scale not given: the % may be the effect or the level left
[13] = target: Mitogen-activated protein kinase 3 (Homo sapiens) (UniProt P27361); experiment: Inhibition of human ERK1 assessed as percent of control at 2000 nM by KINOMEscan assay relative to control; parameters: scale not given: the % may be the effect or the level left
[14] = target: Tyrosine-protein kinase Fgr (Homo sapiens) (UniProt P09769); experiment: Inhibition of human FGR assessed as percent of control at 2000 nM by KINOMEscan assay relative to control; parameters: scale not given: the % may be the effect or the level left
[15] = target: Homeodomain-interacting protein kinase 4 (Homo sapiens) (UniProt Q8NE63); experiment: Inhibition of human HIPK4 assessed as percent of control at 2000 nM by KINOMEscan assay relative to control; parameters: scale not given: the % may be the effect or the level left
[16] = target: Tyrosine-protein kinase JAK1 (Homo sapiens) (UniProt P23458); experiment: Inhibition of human JAK1 JH2 pseudokinase domain assessed as percent of control at 2000 nM by KINOMEscan assay relative to control; parameters: scale not given: the % may be the effect or the level left
[17] = target: Serine/threonine-protein kinase MAK (Homo sapiens) (UniProt P20794); experiment: Inhibition of human MAK assessed as percent of control at 2000 nM by KINOMEscan assay relative to control; parameters: scale not given: the % may be the effect or the level left
[18] = target: Mitogen-activated protein kinase kinase kinase kinase 4 (Homo sapiens) (UniProt O95819); experiment: Inhibition of human MAP4K4 assessed as percent of control at 2000 nM by KINOMEscan assay relative to control; parameters: scale not given: the % may be the effect or the level left
[19] = target: MAP/microtubule affinity-regulating kinase 4 (Homo sapiens) (UniProt Q96L34); experiment: Inhibition of human MARK4 assessed as percent of control at 2000 nM by KINOMEscan assay relative to control; parameters: scale not given: the % may be the effect or the level left
[20] = target: Serine/threonine-protein kinase 4 (Homo sapiens) (UniProt Q13043); experiment: Inhibition of human MST1 assessed as percent of control at 2000 nM by KINOMEscan assay relative to control; parameters: scale not given: the % may be the effect or the level left
[21] = target: Serine/threonine-protein kinase 26 (Homo sapiens) (UniProt Q9P289); experiment: Inhibition of human MST4 assessed as percent of control at 2000 nM by KINOMEscan assay relative to control; parameters: scale not given: the % may be the effect or the level left
[22] = target: Serine/threonine-protein kinase 38 (Homo sapiens) (UniProt Q15208); experiment: Inhibition of human NDR1 assessed as percent of control at 2000 nM by KINOMEscan assay relative to control; parameters: scale not given: the % may be the effect or the level left
[23] = target: Serine/threonine-protein kinase PLK1 (Homo sapiens) (UniProt P53350); experiment: Inhibition of human PLK1 assessed as percent of control at 2000 nM by KINOMEscan assay relative to control; parameters: scale not given: the % may be the effect or the level left
[24] = target: Serine/threonine-protein kinase RIO3 (Homo sapiens) (UniProt O14730); experiment: Inhibition of human RIOK3 assessed as percent of control at 2000 nM by KINOMEscan assay relative to control; parameters: scale not given: the % may be the effect or the level left
[25] = target: Ribosomal protein S6 kinase alpha-6 (Homo sapiens) (UniProt Q9UK32); experiment: Inhibition of human N-terminal RSK4 kinase domain 1 assessed as percent of control at 2000 nM by KINOMEscan assay relative to control; parameters: scale not given: the % may be the effect or the level left
[26] = target: STE20-like serine/threonine-protein kinase (Homo sapiens) (UniProt Q9H2G2); experiment: Inhibition of human SLK assessed as percent of control at 2000 nM by KINOMEscan assay relative to control; parameters: scale not given: the % may be the effect or the level left
[27] = target: Tyrosine-protein kinase Srms (Homo sapiens) (UniProt Q9H3Y6); experiment: Inhibition of human SRMS assessed as percent of control at 2000 nM by KINOMEscan assay relative to control; parameters: scale not given: the % may be the effect or the level left
[28] = target: Serine/threonine-protein kinase TAO3 (Homo sapiens) (UniProt Q9H2K8); experiment: Inhibition of human TAOK3 assessed as percent of control at 2000 nM by KINOMEscan assay relative to control; parameters: scale not given: the % may be the effect or the level left
[29] = target: Tyrosine-protein kinase Tec (Homo sapiens) (UniProt P42680); experiment: Inhibition of human TEC assessed as percent of control at 2000 nM by KINOMEscan assay relative to control; parameters: scale not given: the % may be the effect or the level left
Myc-CaP = experiment: Inhibition of colony formation in murine castration-resistant Myc-CaP cells at 1 uM in presence of 5 uM enzalutamide by clonogenic assay relative to control; assay type: functional; conditions: Mus musculus
4T1 = experiment: Antitumor activity against murine 4T1 cells xenografted in mouse assessed as suppression of tumor volume at 25 mg/kg, po administered twice a day; assay type: functional, organism-based

Chain of Death-associated protein kinase 2 (Homo sapiens) (Q9UIK4 whole entry, looked up): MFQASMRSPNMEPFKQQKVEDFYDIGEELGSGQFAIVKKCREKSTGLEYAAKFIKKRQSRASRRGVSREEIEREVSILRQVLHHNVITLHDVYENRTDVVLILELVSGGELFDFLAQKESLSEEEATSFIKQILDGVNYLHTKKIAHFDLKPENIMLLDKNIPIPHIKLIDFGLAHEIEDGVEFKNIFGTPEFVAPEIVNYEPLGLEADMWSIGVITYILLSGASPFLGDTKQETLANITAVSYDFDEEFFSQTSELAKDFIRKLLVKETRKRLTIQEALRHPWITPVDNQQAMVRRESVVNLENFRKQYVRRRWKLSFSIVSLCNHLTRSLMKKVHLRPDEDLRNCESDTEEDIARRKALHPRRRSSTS
Chain of Serine/threonine-protein kinase 26 (Homo sapiens) (Q9P289 2-416 limits assumed): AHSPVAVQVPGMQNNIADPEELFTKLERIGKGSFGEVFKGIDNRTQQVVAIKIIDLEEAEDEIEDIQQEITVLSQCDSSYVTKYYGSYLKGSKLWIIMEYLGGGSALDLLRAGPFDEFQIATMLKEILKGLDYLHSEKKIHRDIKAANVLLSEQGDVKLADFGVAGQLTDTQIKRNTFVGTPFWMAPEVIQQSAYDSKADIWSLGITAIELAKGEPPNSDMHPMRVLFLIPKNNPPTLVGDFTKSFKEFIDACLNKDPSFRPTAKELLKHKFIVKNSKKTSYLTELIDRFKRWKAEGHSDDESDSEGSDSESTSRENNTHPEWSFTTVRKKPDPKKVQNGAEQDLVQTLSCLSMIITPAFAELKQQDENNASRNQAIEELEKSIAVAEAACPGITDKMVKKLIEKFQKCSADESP
Chain of Cyclin-dependent kinase-like 1 (Homo sapiens) (Q00532 whole entry): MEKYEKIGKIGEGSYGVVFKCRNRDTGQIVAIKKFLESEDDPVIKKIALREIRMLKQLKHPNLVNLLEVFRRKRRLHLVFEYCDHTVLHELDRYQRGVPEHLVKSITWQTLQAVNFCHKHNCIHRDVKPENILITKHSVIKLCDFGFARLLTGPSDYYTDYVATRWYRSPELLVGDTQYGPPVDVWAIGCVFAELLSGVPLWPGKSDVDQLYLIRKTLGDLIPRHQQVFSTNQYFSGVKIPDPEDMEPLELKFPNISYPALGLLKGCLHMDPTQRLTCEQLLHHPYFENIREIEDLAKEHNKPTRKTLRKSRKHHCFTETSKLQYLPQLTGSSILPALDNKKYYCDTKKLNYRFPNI
Chain of Tyrosine-protein kinase Tec (Homo sapiens) (P42680 whole entry): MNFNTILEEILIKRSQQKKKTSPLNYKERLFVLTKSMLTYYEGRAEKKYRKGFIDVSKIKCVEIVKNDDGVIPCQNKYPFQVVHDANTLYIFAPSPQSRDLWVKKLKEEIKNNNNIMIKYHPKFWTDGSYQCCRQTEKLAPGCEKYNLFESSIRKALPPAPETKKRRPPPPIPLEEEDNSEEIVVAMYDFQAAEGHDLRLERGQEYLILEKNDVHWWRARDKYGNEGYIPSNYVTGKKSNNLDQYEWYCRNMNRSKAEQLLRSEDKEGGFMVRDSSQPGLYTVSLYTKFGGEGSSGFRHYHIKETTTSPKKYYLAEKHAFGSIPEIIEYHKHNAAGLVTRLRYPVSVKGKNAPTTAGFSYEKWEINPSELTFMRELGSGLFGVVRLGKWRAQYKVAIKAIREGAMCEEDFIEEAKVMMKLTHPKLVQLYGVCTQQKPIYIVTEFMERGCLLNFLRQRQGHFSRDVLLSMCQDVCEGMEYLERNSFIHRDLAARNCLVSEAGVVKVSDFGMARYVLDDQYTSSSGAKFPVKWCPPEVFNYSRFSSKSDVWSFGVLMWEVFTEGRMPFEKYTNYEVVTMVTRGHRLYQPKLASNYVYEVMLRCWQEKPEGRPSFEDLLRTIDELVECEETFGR
Chain of Cyclin-dependent kinase 19 (Homo sapiens) (Q9BWU1 whole entry): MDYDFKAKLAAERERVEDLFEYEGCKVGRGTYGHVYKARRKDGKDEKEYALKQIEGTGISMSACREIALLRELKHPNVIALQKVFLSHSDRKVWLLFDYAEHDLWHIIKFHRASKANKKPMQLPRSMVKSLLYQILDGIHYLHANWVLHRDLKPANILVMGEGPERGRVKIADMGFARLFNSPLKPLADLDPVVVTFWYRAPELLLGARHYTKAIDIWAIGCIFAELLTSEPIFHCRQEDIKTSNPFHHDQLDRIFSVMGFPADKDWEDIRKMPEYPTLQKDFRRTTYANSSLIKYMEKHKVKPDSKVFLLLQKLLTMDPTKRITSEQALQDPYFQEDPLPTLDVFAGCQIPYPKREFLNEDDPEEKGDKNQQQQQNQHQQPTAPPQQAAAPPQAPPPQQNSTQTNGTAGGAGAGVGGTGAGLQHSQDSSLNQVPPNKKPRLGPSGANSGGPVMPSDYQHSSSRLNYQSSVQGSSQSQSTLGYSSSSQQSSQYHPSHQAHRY
Chain of Ribosomal protein S6 kinase alpha-6 (Homo sapiens) (Q9UK32 whole entry, the tested form may be a part): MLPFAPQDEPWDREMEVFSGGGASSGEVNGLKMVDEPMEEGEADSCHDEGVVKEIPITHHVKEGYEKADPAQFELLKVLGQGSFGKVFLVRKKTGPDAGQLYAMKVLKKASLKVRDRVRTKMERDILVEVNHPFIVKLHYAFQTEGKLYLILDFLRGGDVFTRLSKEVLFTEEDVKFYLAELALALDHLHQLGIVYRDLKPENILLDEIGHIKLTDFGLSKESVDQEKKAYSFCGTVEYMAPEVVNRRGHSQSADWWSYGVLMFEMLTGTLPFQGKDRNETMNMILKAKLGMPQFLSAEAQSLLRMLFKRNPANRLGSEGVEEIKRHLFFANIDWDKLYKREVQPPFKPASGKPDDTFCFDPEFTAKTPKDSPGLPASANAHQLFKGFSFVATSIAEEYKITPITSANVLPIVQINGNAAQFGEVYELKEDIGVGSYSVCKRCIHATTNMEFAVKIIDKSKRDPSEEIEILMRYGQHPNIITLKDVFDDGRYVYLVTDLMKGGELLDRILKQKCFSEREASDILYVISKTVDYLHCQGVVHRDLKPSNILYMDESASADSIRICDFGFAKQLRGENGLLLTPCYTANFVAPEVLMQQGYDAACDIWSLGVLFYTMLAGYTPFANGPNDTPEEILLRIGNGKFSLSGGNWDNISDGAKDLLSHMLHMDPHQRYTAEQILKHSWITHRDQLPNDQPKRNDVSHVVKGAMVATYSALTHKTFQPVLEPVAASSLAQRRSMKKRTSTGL
Chain of Tyrosine-protein kinase Fgr (Homo sapiens) (P09769 2-529 limits assumed): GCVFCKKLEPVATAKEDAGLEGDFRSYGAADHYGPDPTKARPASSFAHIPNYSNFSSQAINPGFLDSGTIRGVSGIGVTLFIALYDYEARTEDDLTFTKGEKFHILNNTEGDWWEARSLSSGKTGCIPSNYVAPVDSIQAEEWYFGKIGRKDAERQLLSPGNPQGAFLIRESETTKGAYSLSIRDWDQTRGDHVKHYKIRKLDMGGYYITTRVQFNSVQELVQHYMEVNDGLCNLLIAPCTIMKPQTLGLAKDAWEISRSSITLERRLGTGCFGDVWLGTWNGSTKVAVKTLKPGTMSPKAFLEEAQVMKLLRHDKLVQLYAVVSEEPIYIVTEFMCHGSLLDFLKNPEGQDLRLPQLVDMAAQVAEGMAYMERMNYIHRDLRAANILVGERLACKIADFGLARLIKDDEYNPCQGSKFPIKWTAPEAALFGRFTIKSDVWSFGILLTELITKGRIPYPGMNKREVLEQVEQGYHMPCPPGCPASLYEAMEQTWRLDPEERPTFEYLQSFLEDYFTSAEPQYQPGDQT
Chain of Tyrosine-protein kinase Srms (Homo sapiens) (Q9H3Y6 whole entry): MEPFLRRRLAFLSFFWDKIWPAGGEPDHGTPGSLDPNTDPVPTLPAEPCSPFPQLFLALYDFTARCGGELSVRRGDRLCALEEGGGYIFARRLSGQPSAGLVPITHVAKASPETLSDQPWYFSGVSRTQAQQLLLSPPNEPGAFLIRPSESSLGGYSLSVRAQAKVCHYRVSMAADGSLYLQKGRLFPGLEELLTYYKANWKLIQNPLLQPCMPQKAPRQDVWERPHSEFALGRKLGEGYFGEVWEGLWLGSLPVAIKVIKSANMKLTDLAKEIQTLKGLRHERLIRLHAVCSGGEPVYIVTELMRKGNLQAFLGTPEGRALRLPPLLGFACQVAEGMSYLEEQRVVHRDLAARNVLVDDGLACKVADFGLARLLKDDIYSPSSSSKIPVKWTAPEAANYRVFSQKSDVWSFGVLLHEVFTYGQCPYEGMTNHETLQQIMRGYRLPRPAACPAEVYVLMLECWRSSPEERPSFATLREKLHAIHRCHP
Chain of Dual specificity protein kinase CLK4 (Homo sapiens) (Q9HAZ1 whole entry, looked up): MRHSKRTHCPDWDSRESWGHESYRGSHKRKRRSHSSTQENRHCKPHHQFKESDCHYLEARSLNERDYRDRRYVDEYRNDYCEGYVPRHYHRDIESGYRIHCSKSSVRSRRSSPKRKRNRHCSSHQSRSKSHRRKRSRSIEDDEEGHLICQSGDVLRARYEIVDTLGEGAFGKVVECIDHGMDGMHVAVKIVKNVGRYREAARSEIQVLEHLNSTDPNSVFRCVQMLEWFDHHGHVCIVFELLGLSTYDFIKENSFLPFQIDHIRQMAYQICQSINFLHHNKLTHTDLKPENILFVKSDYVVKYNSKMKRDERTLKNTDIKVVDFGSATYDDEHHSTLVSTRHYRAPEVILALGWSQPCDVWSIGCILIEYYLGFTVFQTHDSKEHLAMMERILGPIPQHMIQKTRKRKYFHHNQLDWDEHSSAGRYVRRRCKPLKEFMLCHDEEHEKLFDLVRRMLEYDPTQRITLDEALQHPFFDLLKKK
Chain of Aurora kinase B (Homo sapiens) (Q96GD4 whole entry): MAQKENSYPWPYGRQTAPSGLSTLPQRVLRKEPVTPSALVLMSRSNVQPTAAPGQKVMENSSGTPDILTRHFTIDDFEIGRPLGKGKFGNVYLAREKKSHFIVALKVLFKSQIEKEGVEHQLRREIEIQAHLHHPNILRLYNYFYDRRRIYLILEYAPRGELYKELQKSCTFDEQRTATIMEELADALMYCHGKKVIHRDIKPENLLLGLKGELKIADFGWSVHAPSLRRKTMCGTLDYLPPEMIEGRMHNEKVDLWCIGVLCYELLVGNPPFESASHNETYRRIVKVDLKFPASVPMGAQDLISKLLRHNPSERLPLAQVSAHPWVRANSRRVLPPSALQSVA

In the case of `CN(C)C(=O)c1ccc(N2CCCN(c3ccnc4sc(C(N)=O)c(N)c34)CC2)cc1`, the Activity [1] was 88% and 84%, the Activity [2] was 94% and 83% and the Activity [3] was 85% and 91%. The Activity [4] was 99% and 100%, the Activity [5] was 91% and 90% and the Activity [6] was 13% and 0%. For the same molecule, the Activity [7] was 95% and 97%, the Activity [8] was 100% and 92% and the Activity [9] was 59% and 66%. For the same molecule, the Activity [10] was 75% and 85%, the Activity [11] was 99% and 100% and the Activity [12] was 85% and 100%. The Activity [13] was 100% and 97%, the Activity [14] was 100% and the Activity [15] was 100%. The Activity [16] was 89%, the Activity [17] was 100% and 91% and the Activity [18] was 100% and 93%. The Activity [19] was 100% and 98%, the Activity [20] was 100% and 98% and the Activity [21] was 95% and 89%. For the same molecule, the Activity [22] was 100% and 80%, the Activity [23] was 95% and 89% and the Activity [24] was 100% and 95%. For the same molecule, the Activity [25] was 78% and 80%, the Activity [26] was 56% and 54% and the Activity [27] was 81% and 93%. For the same molecule, the Activity [28] was 98% and 73%, the Activity [29] was 91% and 81% and the inhibition (Myc-CaP) was “Active”. For the same molecule, the Activity (4T1) was “Active”.
